How the values were obtained:
endometriotic lesions = experiment: Endometriosis animal model, lesion size and histology; assay type: in vivo, C57/BL6 mice; details: fraxetin 30mg/kg orally for four weeks
Method: Seven-week-old female C57/BL6 mice were purchased from DBL (Eumseong, South Korea). After a 7-day acclimation period, they were subcutaneously injected with 2 mg/50 μL of progesterone two days before surgery. After anesthetizing the mice, the […] was excised and autografted onto the peritoneum to induce endometriosis. After culturing for two weeks, the mice were randomly assigned to groups and administered either a vehicle as the control, fraxetin at 30mg/kg, or dienogest at 1 mg/kg orally for four weeks.
For histological analysis, tissues were lesion prepared as paraffin blocks and sectioned onto slides. Hematoxylin-eosin (H&E) staining was performed using Mayer's hemalum solution and a Prussian Blue staining kit (Cat. Ab150674, Abcam) histological analysis and for immunohistochemistry. Immunohistochemistry was conducted using an avidin-biotin complex kit (Cat. PK-4001, Vector Laboratories).

VK2/E6E7 cells [1] = experiment: Icam1/Vcam1 expression in endometriosis cell line; assay type: cell-based, human
Method: (§1) The endometrial cell lines VK2/E6E7, End1/E6E7, and normal endometrial stromal cell line T-HESC were purchased from ATCC. The cells were cultured in keratinocyte serum-free medium or DMEM/F12 1:1 medium containing 10% FBS for monolayer culture. Endometrial cell lines (VK2/E6E7,End1/E6E7) and normal cells were cultured at 37° C. in a 5% CO2 incubator.

End1/E6E7 cells [2] = experiment: Icam1/Vcam1 expression in endometriosis cell line; assay type: cell-based, human
Method: as §1

[3] = test system: normal endometrial stromal cell line T-HESC; experiment: BrdU cell proliferation assay, normal cells; assay type: cell-based, human; details: 48 hours
Method: (§2) To examine the effects of fraxetin on cell proliferation, the inventors performed a BrdU cell proliferation assay.
(§3) First, 5×10^3 cells of VK2/E6E7, End1/E6E7, and T-HESC were each distributed in 100 μL of medium in 96-well plates.
(§4) Fraxetin was then administered in a dose-dependent manner (0μM, 5 μM, 10 μM, 20 uM, 50 μM, 100 uM) and cultured for 48 hours, followed by the BrdU assay using a BrdU kit (Cat No: 1167229001, Roche) according to the manufacturer's instructions.
(§5) After 48 hours of incubation, 10 μM BrdU (Bromodeoxyuridine) was added to each well and incubated at 37° C. in a 5% CO2 incubator for 2 hours. The cells were then fixed, reacted with anti-BrdU-POD solution at room temperature for 90 minutes, and washed three times. Finally, 100 μL of 3, 3′, 5, 5′-tetramethylbenzidine substrate was added, and absorbance was measured at wavelengths of 370 nm and 492 nm to analyze cell proliferation.

VK2/E6E7 cells [4] = experiment: Mitochondrial calcium concentration (rhod-2 staining); assay type: cell-based, human
Method: (§6) To examine intracellular or mitochondrial calcium concentration changes in endometrial cells induced by fraxetin, the inventors conducted experiments using 3 μM fluo-4 acetoxymethyl ester (AM) (Invitrogen) and 3 μM rhod-2.
(§7) First, cells were cultured in 6-well plates, treated with fraxetin in a dose-dependent manner (0 μM, 5 μM, 10 μM, 20 μM, 50 μM, 100 μM), and incubated at 37° C. in a 5% CO2 incubator for 48 hours. The cells were then detached using trypsin, washed with PBS, and stained with 3 μM fluo-4 or 3 μM rhod-2 for 20 minutes at 37° C. in a 5% CO2 incubator. After staining, the cells were washed with PBS, transferred to FACS tubes, and analyzed by flow cytometry to measure intracellular or mitochondrial calcium concentrations.

End1/E6E7 cells [5] = experiment: as above; assay type: cell-based, human
Method: as §6, §7

VK2/E6E7 cells [6] = experiment: Mitochondrial respiration (XF Cell Mitostress kit); assay type: cell-based, human
Method: (§8) To confirm the effects of fraxetin on mitochondrial respiration in endometrial cells, the inventors used an XF Cell Mitostress kit.
(§9) In brief, endometrial cells were seeded in 24-well plates and cultured at 37° C. in a 5% CO2 incubator for 16 hours, followed by treatment with […]. Subsequently, various mitochondrial respiration parameters were measured by sequential treatment with oligomycin, FCCP, rotenone, and antimycin A in the two cell lines.

End1/E6E7 cells [7] = experiment: Mitochondrial respiration (XF Cell Mitostress kit); assay type: cell-based, human
Method: as §8, §9

VK2/E6E7 cells [8] = experiment: BrdU cell proliferation assay; assay type: cell-based, human; details: VK2/E6E7, 100 μM, 48 hours
Method: as §2, §3, §4, §5

End1/E6E7 cells [9] = experiment: BrdU cell proliferation assay; assay type: cell-based, human; details: End1/E6E7, all concentrations (5-100 μM), 48 hours
Method: as §2, §3, §4, §5

VK2/E6E7 cells [10] = experiment: Intracellular calcium concentration (fluo-4 staining); assay type: cell-based, human
Method: as §6, §7

End1/E6E7 cells [11] = experiment: as above; assay type: cell-based, human
Method: as §6, §7

VK2/E6E7 cells [12] = experiment: Cell cycle analysis by flow cytometry (PI); assay type: cell-based, human; details: VK2/E6E7, 48 hours
Method: (§10) The inventors performed flow cytometry to examine the changes in the cell cycle of endometrial cells induced by fraxetin.
(§11) In brief, 5×10^3 cells of VK2/E6E7, End1/E6E7, and T-HESC were treated with fraxetin in a dose-dependent manner (0 μM, 5 μM, 10 μM, 20 μM, 50 μM, 100 μM) and incubated for 48 hours at 37° C. in a 5% CO2 incubator.
(§12) Afterward, cells were detached from the culture plates using trypsin, washed with 0.1% BSA/PBS, and fixed in 70% ethanol for 24 hours. The cells were then washed with 0.1% BSA/PBS, treated with RNase A (Sigma), and stained with PI. The stained solution transferred to FACS tubes, and fluorescence intensity and cell cycle were analyzed using a flow cytometer.

End1/E6E7 cells [13] = experiment: Cell cycle analysis by flow cytometry (PI); assay type: cell-based, human; details: End1/E6E7, 48 hours
Method: as §10, §11, §12

SMILES: COc1cc2ccc(=O)oc2c(O)c1O [fraxetin]
- immune cell infiltration (tissue after iron staining) (endometriotic lesions): increase
- size of endometriotic lesions (endometriotic lesions; vs vehicle control): significantly reduced
- expression levels of Icam1 and Vcam1 (VK2/E6E7 cells [1]): significant decrease
- expression levels of Icam1 and Vcam1 (End1/E6E7 cells [2]): significant decrease
- cell proliferation in normal endometrial cells [3]: no changes
- mitochondrial calcium ion levels (VK2/E6E7 cells [4]; 20 μM fraxetin, second value, VK2/E6E7 assumed): 2.4 fold
- mitochondrial calcium ion levels (VK2/E6E7 cells [4]; 50 μM fraxetin): slight increase
- mitochondrial calcium ion levels (End1/E6E7 cells [5]; 20 μM fraxetin, first value, End1/E6E7 assumed): 1.7 fold
- mitochondrial calcium ion levels (End1/E6E7 cells [5]; 50 μM fraxetin): slight increase
- ATP production (VK2/E6E7 cells [6]): decreased
- basal respiration (VK2/E6E7 cells [6]): decreased
- ATP production (End1/E6E7 cells [7]): significantly decreased
- basal respiration (End1/E6E7 cells [7]): significantly decreased
- maximal respiration (End1/E6E7 cells [7]): significantly decreased
- reserve respiratory capacity compared to control (End1/E6E7 cells [7]): halved
- reduction of cell proliferation (VK2/E6E7 cells [8]): approximately 40%
- cell proliferation (remaining) (End1/E6E7 cells [9]): below 50%
- calcium levels (upregulated to) (VK2/E6E7 cells [10]): 300%
- calcium levels (upregulated to) (End1/E6E7 cells [11]): 180%
- number of cells in the Sub-G1 phase (VK2/E6E7 cells [12]): increase
- number of cells in the Sub-G1 phase (End1/E6E7 cells [13]): increase
